From patent publication US10398703B2, “Therapeutic compounds and uses thereof” (Kala Pharmaceuticals, Inc., priority 2013, dated 2019)
Like-named read-outs stand apart in the source and are kept apart here.

Experiments:
[1] = Back of the eye drug exposure (PK) after topical instillation of compound MPP; type: in vivo; settings: rabbit, topical or ocular, 50 μL of 0.5% MPP formulation, MPP 0.5%, 50 μL topical BID 5 days, Dutch-belted rabbits, 8 mm punch
Excerpt: Dutch-belted rabbits were used in these studies.
The portion of the retina and choroid collected and analyzed was an 8 mm round punch where the macula is located in humans.

[2] = Mobility of MPP nanoparticles in human cervicovaginal mucus (dark field microscopy); settings: low pH of human cervicovaginal mucus
Description: In order to determine whether the generated nanoparticles have reduced interactions with mucins and are therefore able to move within mucus without becoming trapped, particles were incubated with human cervicovaginal mucus (CVM) and observed via dark field microscopy. In a typical experiment, […] of the nanoparticle suspension was added to 20 μl of CVM. Observations were made in a minimum of three distinct and randomly selected areas of the CVM sample. Control particles with known behavior were used to qualify the CVM sample as appropriate for the assay. For all compounds (except compound 55) listed in Table 4, mobility in mucus was observed and therefore the nanoparticles were deemed to be effective MPP.

[3] = choroid, read-out: AUC0-last Choroid
[4] = choroid, read-out: Cmax Choroid
[5] = retina, read-out: AUC0-last Retina

Structure (SMILES)	AUC(0-t) [1, 3]	Cmax [1, 4]	AUC(0-t) [1, 5]	Cmax ([1]; retina, read-out: Cmax Retina)	solubility in CVM [2]
COc1cc2c(Oc3ccc(NC(=O)Nc4cc(C)on4)c(Cl)c3)ncnc2cc1OCCCN1CCC2(CC1)COC2 [Compound 9]	5.4 µM·h	693 nM	0.915 µM·h	110 nM	
COc1cc2c(Oc3ccc(NC(=O)Nc4cc(C)ccc4F)c(Cl)c3)ncnc2cc1OCCCN1CCC2(CC1)COC2 [Compound 12]	2.45 µM·h	265 nM	0.308 µM·h	39 nM	
COc1cc2c(Oc3ccc(NC(=O)Nc4cc(C)ccc4F)c(Cl)c3)ccnc2cc1OCCCN1CCC2(CC1)COC2 [Compound 25]	5.79 µM·h	574 nM	0.297 µM·h	33 nM	
COc1cc2ncnc(Oc3ccc(NC(=O)Nc4ccc(CN5CCN(C)CC5)cc4)c(Cl)c3)c2cc1OC [Compound 55]					soluble in the low pH of CVM
